Reference: ChEMBL document CHEMBL1759905, “Nonsteroidal 2,3-dihydroquinoline glucocorticoid receptor agonists with reduced PEPCK activation” (Bioorg Med Chem Lett, 2011)

Assays:
[1] = target: T1, Mineralocorticoid receptor (Homo sapiens, UniProt P08235); assay: Binding affinity to mineralocorticoid receptor
T1 sequence (P08235 whole entry): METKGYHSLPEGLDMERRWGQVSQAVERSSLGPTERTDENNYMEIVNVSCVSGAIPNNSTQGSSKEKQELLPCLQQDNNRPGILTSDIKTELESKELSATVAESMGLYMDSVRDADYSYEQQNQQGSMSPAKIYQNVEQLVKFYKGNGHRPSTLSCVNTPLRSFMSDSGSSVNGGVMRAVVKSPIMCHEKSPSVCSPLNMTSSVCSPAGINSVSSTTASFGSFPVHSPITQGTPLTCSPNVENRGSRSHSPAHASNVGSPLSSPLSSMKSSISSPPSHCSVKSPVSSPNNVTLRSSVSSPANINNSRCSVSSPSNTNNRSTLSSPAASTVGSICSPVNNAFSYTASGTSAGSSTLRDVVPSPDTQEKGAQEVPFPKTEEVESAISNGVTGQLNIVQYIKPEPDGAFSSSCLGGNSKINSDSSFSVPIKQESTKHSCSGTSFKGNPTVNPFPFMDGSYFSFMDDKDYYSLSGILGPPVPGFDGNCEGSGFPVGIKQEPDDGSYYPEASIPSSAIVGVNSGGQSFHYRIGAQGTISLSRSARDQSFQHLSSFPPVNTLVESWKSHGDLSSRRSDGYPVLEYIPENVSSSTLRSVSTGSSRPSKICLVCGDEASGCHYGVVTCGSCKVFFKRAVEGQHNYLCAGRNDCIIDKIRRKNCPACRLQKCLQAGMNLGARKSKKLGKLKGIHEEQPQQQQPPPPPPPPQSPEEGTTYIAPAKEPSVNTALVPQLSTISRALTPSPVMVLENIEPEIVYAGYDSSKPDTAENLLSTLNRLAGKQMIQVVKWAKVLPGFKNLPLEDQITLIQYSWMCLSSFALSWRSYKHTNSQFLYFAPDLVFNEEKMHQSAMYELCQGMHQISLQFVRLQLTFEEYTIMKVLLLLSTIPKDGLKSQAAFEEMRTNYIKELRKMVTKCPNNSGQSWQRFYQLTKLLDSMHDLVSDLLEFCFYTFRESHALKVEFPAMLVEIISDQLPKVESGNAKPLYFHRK

Progesterone receptor = target: T2, Progesterone receptor (Homo sapiens, UniProt P06401); assay: Binding affinity to progesterone receptor
T2 sequence (P06401 whole entry): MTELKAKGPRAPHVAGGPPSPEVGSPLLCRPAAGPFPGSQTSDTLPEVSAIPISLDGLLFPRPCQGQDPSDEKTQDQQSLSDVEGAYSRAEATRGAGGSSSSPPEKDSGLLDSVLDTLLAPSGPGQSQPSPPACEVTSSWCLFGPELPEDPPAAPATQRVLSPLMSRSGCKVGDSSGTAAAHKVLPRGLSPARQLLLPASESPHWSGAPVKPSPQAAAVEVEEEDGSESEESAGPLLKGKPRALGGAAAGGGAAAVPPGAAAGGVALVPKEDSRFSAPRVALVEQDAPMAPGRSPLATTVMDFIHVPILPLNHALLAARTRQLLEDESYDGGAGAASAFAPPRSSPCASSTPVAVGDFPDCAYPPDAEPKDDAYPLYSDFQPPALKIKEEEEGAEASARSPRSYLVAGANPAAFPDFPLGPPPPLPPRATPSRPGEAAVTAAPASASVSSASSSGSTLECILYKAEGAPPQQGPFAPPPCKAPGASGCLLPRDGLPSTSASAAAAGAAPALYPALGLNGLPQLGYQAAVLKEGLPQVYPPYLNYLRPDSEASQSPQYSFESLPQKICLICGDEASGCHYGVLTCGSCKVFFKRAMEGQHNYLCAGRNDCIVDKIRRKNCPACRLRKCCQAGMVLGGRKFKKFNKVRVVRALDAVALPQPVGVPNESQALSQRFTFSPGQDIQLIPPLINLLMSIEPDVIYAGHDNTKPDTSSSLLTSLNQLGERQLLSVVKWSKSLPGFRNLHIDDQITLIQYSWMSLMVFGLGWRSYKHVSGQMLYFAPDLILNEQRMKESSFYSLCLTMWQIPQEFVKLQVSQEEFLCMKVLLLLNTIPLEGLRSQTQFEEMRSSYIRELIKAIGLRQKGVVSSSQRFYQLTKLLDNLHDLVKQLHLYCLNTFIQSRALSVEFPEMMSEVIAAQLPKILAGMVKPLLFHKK

[2] = target: T3, Glucocorticoid receptor (Homo sapiens) (UniProt P04150); assay: Transrepression activity at glucocorticoid receptor in human NHDF cells assessed as inhibition of IL-1beta-stimulated AP1 dependent IL-6 repression by ELISA relative to Dexamethasone; format: cell-based; set-up: concentration or dose not given beside the values
T3 sequence (whole entry): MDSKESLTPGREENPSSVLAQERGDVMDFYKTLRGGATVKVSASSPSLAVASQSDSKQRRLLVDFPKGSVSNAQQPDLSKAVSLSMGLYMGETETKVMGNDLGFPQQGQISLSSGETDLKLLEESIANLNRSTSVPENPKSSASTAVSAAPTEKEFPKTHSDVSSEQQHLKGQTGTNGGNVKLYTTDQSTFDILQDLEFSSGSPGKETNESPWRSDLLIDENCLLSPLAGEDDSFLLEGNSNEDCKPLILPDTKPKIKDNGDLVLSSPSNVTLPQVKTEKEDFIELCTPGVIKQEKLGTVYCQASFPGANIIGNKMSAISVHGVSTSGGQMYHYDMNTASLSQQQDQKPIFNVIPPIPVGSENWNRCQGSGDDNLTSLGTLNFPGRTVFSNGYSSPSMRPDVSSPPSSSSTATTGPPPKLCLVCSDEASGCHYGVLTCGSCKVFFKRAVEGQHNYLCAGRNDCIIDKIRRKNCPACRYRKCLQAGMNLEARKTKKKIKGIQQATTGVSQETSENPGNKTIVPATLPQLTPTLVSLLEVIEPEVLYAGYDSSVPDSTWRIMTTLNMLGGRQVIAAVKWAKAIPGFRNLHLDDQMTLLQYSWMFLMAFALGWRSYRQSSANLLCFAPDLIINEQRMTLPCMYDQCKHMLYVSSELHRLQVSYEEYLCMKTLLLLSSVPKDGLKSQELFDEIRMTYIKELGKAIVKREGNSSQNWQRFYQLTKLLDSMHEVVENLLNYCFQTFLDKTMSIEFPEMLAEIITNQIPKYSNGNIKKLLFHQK

Glucocorticoid receptor = target: T4, Glucocorticoid receptor (Homo sapiens, UniProt P04150); assay: Displacement of radiolabeled Dexamethasone from glucocorticoid receptor expressed in baculovirus
T4 sequence (P04150 whole entry): T3 sequence (whole entry)

SMILES	Ki [1] [nM]	Ki (Progesterone receptor) [nM]	Activity [2] [%]	Ki (Glucocorticoid receptor) [nM]
Cc1c[nH]c2c(-c3c(F)cc4c(c3F)/C(=N/OC(C)C)CC(C)(C)N4)cccc12	2800	380	77	2.7
Cc1c[nH]c2c(-c3c(F)cc4c(c3F)/C(=N/OC(C)(C)CO)CC(C)(C)N4)cccc12	2700	950	67	0.8

The next molecules have a lower Ki [1] than those just listed; values first:

Ki [1] [nM]	Ki (Progesterone receptor) [nM]	Activity [2] [%]	Ki (Glucocorticoid receptor) [nM]	SMILES
1040	570	83	2	CC1(C)C/C(=N\OC(C)(C)C)c2c(cc(F)c(-c3cccc4c(Cl)c[nH]c34)c2F)N1
1700	3800	98	3.8	CO/N=C1/c2c(cc(F)c(-c3cccc4c(C)c[nH]c34)c2F)NC(C)(C)C1O (racemic)
1600	220	73	2.2	Cc1c[nH]c2c(-c3c(F)cc4c(c3F)/C(=N/OC(C)(C)C)CC(C)(C)N4)cccc12
